Measured values as given in patent US11951155B2, “Pea-derived peptide with muscle-building effect and preparation method thereof, and drug and use” (Zhongshi Duqing(Shandong) Biotech Co., Ltd, priority 2022, dated 2024).
“And” between values parts separate entries of the source, which are not always exact repeats. Equal entries are not always repeated. Ends that are not written are not given here.

Assays:
[1] = system: IGF-1R, cyclinD1, CDK6, p-AMPK in C2C12 cells; assay: Western blot of growth and proliferation-related proteins in C2C12 cells; assay type: cell-based; details: skeletal muscle cells treated with one peptide alone
Excerpt: The C2C12 cells in a logarithmic growth phase were inoculated into a 6-well plate at 1×10^6; the cells were divided into 6 groups, namely a blank control group (CN), and sample groups including a pea-derived peptide PP1 group (PP1), a pea-derived peptide PP2 group (PP2), a pea-derived peptide PP3 group (PP3), a pea-derived peptide PP4 group (PP4), and a pea-derived peptide PP5 group (PP5). Each treatment group was set to duplicate 3 wells, with approximately 1,000,000 cells per well; a sample having a concentration of 0.4 μg/ml was added to the cells of the sample groups, and each treatment group was set to 3 duplicate wells. After co-incubating for 24 h, the cells in different treatment groups were collected, fully lysed, and a total protein was extracted, and a protein concentration was determined using a nucleic acid protein analyzer. The protein sample was mixed with a loading buffer thoroughly, denatured at 100° C. for 10 min, and subjected to SDS-PAGE gel electrophoresis. The program included: 80 V for 30 min; 100 V for 80 min. Membrane transfer was conducted, where the membrane transfer procedure was conducted at 100 V for 90 min. After transferring, the sample was placed in a 5% skimmed milk powder, and sealed in a shaker at room temperature for 1 h. GAPDH antibody (1:2000) and PCNA antibody, AMPK antibody, p-AMPK antibody, IGF-1 antibody (1:1000) were added separately, and allowed to stand at 4° C. overnight. A secondary antibody (1:20000) was added, and incubated at room temperature for 1 h. The membrane was washed 3 times with TBST, and a Pierce-enhanced luminescent agent was added, and exposure was conducted by an automatic exposure machine.

C2C12 cells = assay: C2C12 cell proliferation assay (CCK-8, OD at 450 nm); assay type: cell-based; details: for cell concentration compared with CN group: co-incubated 48 h, 0.4 μg/ml; for OD value, Average value / OD value, Repeated three groups: sample 0.4 μg/ml, OD 450 nm; for OD value, Repeated three groups: single replicates
Method: The C2C12 cells in a logarithmic growth phase were inoculated into a 96-well plate; the cells were divided into 4 groups, namely a blank control group (CN, without any peptide fractions), a pea-derived peptide S1 group, a pea-derived peptide S2 group, and a pea-derived peptide S3 group; each treatment group was set to duplicate 3 wells, with approximately 1,000 cells per well. Except for the blank control group, 0.4 μg/ml pea-derived peptide was added to the cells, and 10 μL of a CCK-8 solution was added separately at 0 h, 12 h, 24 h, 36 h, and 48 h, and mixed well; the cells were incubated in a CO2 incubator at 37° C. for 2 h, an OD value was measured using a microplate reader at 450 nm, and a cell proliferation curve was drawn.
The C2C12 cells in a logarithmic growth phase were inoculated into a 96-well plate; the cells were divided into 6 groups, namely a blank control group (CN, without any peptide fractions), and sample groups including a pea-derived peptide PP1 group (PP1), a pea-derived peptide PP2 group (PP2), a pea-derived peptide PP3 group (PP3), a pea-derived peptide PP4 group (PP4), and a pea-derived peptide PP5 group (PP5). Each treatment group was set to 3 duplicate wells, with approximately 1,000 cells per well. A sample having a concentration of 0.4 μg/ml was added to the cells of the sample groups, and 10 μL of a CCK-8 solution was added separately at 0 h, 12 h, 24 h, 36 h, and 48 h, and mixed well; the cells were incubated in a CO2 incubator at 37° C. for 2 h, an OD value was measured using a microplate reader at 450 nm, and a cell proliferation curve was drawn.

pepsin and trypsin = assay: In vitro digestion test with pepsin and trypsin; assay type: in vitro ADME; details: 500 mg/L; pepsin 20 mg/g pH 2.0 37° C. 90 min, then trypsin 40 mg/g pH 7.5 37° C. 150 min; HPLC or LC-MS
Method: A pea-derived peptide aqueous solution and a pea-derived peptide PP2 aqueous solution with a mass concentration of 500 mg/L were prepared separately, pepsin (20 mg/g) was added, a pH value was adjusted to 2.0, and the two aqueous solutions were treated in a water bath at a constant temperature of 37° C. for 90 min. Following the water bath, the pH value was adjusted to 7.5, trypsin (40 mg/g) was added, and the two aqueous solutions were treated in the water bath at a constant temperature of 37° C. for 150 min. Following the water bath, the two solutions were placed in a 95° C. water bath for 5 min to inactivate the enzyme. The samples were freeze-dried and analyzed by HPLC to compare changes in the liquid chromatograms before and after digestion. Also provided were undigested pea-derived peptide and pea-derived peptide digested only by pepsin but not by trypsin.
Pea-derived peptide PP2 was digested in vitro according to the method of Example 4.

**Q.** How did the “expression of IGF-1R, cyclinD1, CDK6 and p-AMPK” value (shortened to “expression … CDK6 and p-AMPK”) [1] turn out when EGSLLLPH was run?
**A.** Its value is “significantly increase expression”.

**Q.** What about the “cell concentration compared with CN group” value (C2C12 cells) of the same substance?
**A.** Its value is “increases significantly”.

**Q.** And the “OD value, Average value” (C2C12 cells; treatment time 0 h)?
**A.** Its value is 0.35.

**Q.** What about the “OD value, Repeated three groups” value (C2C12 cells; treatment time 0 h) of the same substance?
**A.** The value was 0.28 and 0.35 and 0.41.

**Q.** And the “OD value, Average value” (C2C12 cells; treatment time 12 h)?
**A.** Its value is 0.53.

**Q.** And the “OD value, Repeated three groups” value (C2C12 cells; treatment time 12 h)?
**A.** The value was 0.52 and 0.66 and 0.42.

**Q.** And the “OD value, Average value” (C2C12 cells; treatment time 24 h)?
**A.** Its value is 1.26.

**Q.** What about the “OD value, Repeated three groups” value (C2C12 cells; treatment time 24 h) of the same substance?
**A.** The value was 1.24 and 1.07 and 1.48.

**Q.** And the “OD value, Average value” (C2C12 cells; treatment time 36 h)?
**A.** Its value is 1.73.

**Q.** What about the “OD value, Repeated three groups” value (C2C12 cells; treatment time 36 h) of the same substance?
**A.** The value was 1.77 and 1.62 and 1.81.

**Q.** And the “OD value, Average value” (C2C12 cells; treatment time 48 h)?
**A.** The value was 1.95.

**Q.** What about the “OD value, Repeated three groups” value (C2C12 cells; treatment time 48 h) of the same substance?
**A.** Its value is 1.96 and 1.78 and 2.10.

**Q.** Which “stability after digestion by pepsin and trypsin” value (pepsin and trypsin) does the source give for LDLPVL [PP2, Leu-Asp-Leu-Pro-Val-Leu] here?
**A.** Its value is “not digested and degraded by the pepsin and trypsin”.

**Q.** With LLYVIR as the substance, how does the “expression … CDK6 and p-AMPK” value [1] read?
**A.** Its value is “significantly increase expression”.

**Q.** And the “cell concentration compared with CN group” value (C2C12 cells)?
**A.** The value was “increases significantly”.

**Q.** And the “OD value, Average value” (C2C12 cells; treatment time 0 h)?
**A.** The value was 0.38.

**Q.** And the “OD value, Repeated three groups” value (C2C12 cells; treatment time 0 h)?
**A.** The value was 0.36 and 0.52 and 0.27.

**Q.** What about the “OD value, Average value” (C2C12 cells; treatment time 12 h) of the same substance?
**A.** The value was 0.50.

**Q.** What about the “OD value, Repeated three groups” value (C2C12 cells; treatment time 12 h) of the same substance?
**A.** Its value is 0.42 and 0.51 and 0.56.

**Q.** What about the “OD value, Average value” (C2C12 cells; treatment time 24 h) of the same substance?
**A.** Its value is 1.34.

**Q.** What about the “OD value, Repeated three groups” value (C2C12 cells; treatment time 24 h) of the same substance?
**A.** The value was 1.08 and 1.62 and 1.32.

**Q.** And the “OD value, Average value” (C2C12 cells; treatment time 36 h)?
**A.** Its value is 1.84.

**Q.** What about the “OD value, Repeated three groups” value (C2C12 cells; treatment time 36 h) of the same substance?
**A.** The value was 1.95 and 1.83 and 1.74.

**Q.** And the “OD value, Average value” (C2C12 cells; treatment time 48 h)?
**A.** The value was 2.11.

**Q.** And the “OD value, Repeated three groups” value (C2C12 cells; treatment time 48 h)?
**A.** Its value is 2.07 and 2.32 and 1.95.

**Q.** What does the source list for NTNYEEIEKVL?
**A.** expression of IGF-1R, cyclinD1, CDK6 and p-AMPK [1]: significantly increase expression; cell concentration compared with CN group (C2C12 cells): increases significantly; OD value, Average value (C2C12 cells; treatment time 0 h): 0.36; OD value, Repeated three groups (C2C12 cells; treatment time 0 h): 0.44 and 0.27 and 0.36; OD value, Average value (C2C12 cells; treatment time 12 h): 0.557; OD value, Repeated three groups (C2C12 cells; treatment time 12 h): 0.43 and 0.53 and 0.71; OD value, Average value (C2C12 cells; treatment time 24 h): 1.42; OD value, Repeated three groups (C2C12 cells; treatment time 24 h): 1.41 and 1.66 and 1.19; OD value, Average value (C2C12 cells; treatment time 36 h): 1.88; OD value, Repeated three groups (C2C12 cells; treatment time 36 h): 1.72 and 2.06 and 1.86; OD value, Average value (C2C12 cells; treatment time 48 h): 2.12; OD value, Repeated three groups (C2C12 cells; treatment time 48 h): 1.98 and 2.32 and 2.05

**Q.** TNYEEIEKVLL was tested. Which “expression … CDK6 and p-AMPK” value [1] did it give?
**A.** Its value is “significantly increase expression”.

**Q.** What about the “cell concentration compared with CN group” value (C2C12 cells) of the same substance?
**A.** The value was “increases significantly”.

**Q.** And the “OD value, Average value” (C2C12 cells; treatment time 0 h)?
**A.** Its value is 0.33.

**Q.** And the “OD value, Repeated three groups” value (C2C12 cells; treatment time 0 h)?
**A.** Its value is 0.41 and 0.37 and 0.22.

**Q.** And the “OD value, Average value” (C2C12 cells; treatment time 12 h)?
**A.** Its value is 0.56.

**Q.** What about the “OD value, Repeated three groups” value (C2C12 cells; treatment time 12 h) of the same substance?
**A.** Its value is 0.54 and 0.45 and 0.68.

**Q.** What about the “OD value, Average value” (C2C12 cells; treatment time 24 h) of the same substance?
**A.** Its value is 1.33.

**Q.** What about the “OD value, Repeated three groups” value (C2C12 cells; treatment time 24 h) of the same substance?
**A.** Its value is 1.31 and 1.06 and 1.62.

**Q.** What about the “OD value, Average value” (C2C12 cells; treatment time 36 h) of the same substance?
**A.** The value was 1.86.

**Q.** And the “OD value, Repeated three groups” value (C2C12 cells; treatment time 36 h)?
**A.** Its value is 2.03 and 1.67 and 1.89.

**Q.** And the “OD value, Average value” (C2C12 cells; treatment time 48 h)?
**A.** Its value is 2.09.

**Q.** What about the “OD value, Repeated three groups” value (C2C12 cells; treatment time 48 h) of the same substance?
**A.** Its value is 1.87 and 2.11 and 2.28.
